Read-outs that look alike come from different tables or passages of the source.
What was measured:
Format in all cases: cell-based
[1] = test system: HCC827 cells; experiment: 5-Day CellTiter Glo (CTG) cell proliferation assay, HCC827; conditions: Homo sapiens; HCC827 cells (d746-750 EGFR), 5-day CTG proliferation, 120 hours; read-out: HCC827 IC50
Procedure, shortened: (§1)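 Proliferation of EGFR-driven NSCLC cells was scored as CellTiter-Glo 2.0 luminescence after a 5-day (120 h) incubation with compounds in 9 doses. IC50 values came from the dose-response curves.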

[2] = test system: BaF3 cells with engineered EGFR d746-750/T790M; experiment: 3-Day CellTiter Glo (CTG) cell proliferation assay, BaF3 EGFR d746-750/T790M; conditions: Mus musculus; BaF3 EGFR d746-750/T790M cells, 3-day CTG proliferation, 72 hours
Procedure: (§2) 3-DAY CellTiter Glo (CTG) Cell Proliferation Assays (BaF3 Cell Lines)
(§3) Cell proliferation assays were carried out in BaF3 cells engineered with EGFR mutations. BaF3 cells with engineered EGFR L858R/T790M/C797S, EGFR L858R/C797S, or EGFR d746-750/T790M transgene, one thousand cells/50 μL per well were seeded in white 384-well plate, followed by treatment with indicated compounds in a 9-dose dilution series using TECAN d300e liquid dispenser. Cells were incubated with compounds for 72 hours at 37° C. and 5% CO2. Cell proliferation was measured using CellTiter-Gbo 2.0 luciferase-based ATP detection assay (Promega, Madison, WI) at 18 μL per well following the manufacturer's protocol. Plates were then read on a TECAN Sparks multimode microplate reader. Data was analyzed using GraphPad Prism 9 (GraphiPad Software, San Diego, CA) to obtain IC50 values.

[3] = test system: BaF3 cells with engineered EGFR L858R/C797S; experiment: 3-Day CellTiter Glo (CTG) cell proliferation assay, BaF3 EGFR L858R/C797S; conditions: Mus musculus, 3-day CTG proliferation, 72 hours
Procedure: as §2, §3

[4] = test system: PC-9 cells; experiment: 5-Day CellTiter Glo (CTG) cell proliferation assay, PC-9; conditions: Homo sapiens; PC-9 cells (d746-750 EGFR), 5-day CTG proliferation, 120 hours; read-out: PC-9 IC50
Procedure, shortened: as §1

[5] = molecular target: T1, pEGFR, PC-9 cells (d746-750 EGFR) (Homo sapiens, UniProt P00533, DEL746-750); experiment: Cellular EGFR phosphorylation assay (LANCE Ultra TR-FRET) in PC-9 cells
T1 construct: pEGFR (Tyr1068) TR-FRET
T1 sequence (P00533 with tags, fused parts or gaps DEL746-750): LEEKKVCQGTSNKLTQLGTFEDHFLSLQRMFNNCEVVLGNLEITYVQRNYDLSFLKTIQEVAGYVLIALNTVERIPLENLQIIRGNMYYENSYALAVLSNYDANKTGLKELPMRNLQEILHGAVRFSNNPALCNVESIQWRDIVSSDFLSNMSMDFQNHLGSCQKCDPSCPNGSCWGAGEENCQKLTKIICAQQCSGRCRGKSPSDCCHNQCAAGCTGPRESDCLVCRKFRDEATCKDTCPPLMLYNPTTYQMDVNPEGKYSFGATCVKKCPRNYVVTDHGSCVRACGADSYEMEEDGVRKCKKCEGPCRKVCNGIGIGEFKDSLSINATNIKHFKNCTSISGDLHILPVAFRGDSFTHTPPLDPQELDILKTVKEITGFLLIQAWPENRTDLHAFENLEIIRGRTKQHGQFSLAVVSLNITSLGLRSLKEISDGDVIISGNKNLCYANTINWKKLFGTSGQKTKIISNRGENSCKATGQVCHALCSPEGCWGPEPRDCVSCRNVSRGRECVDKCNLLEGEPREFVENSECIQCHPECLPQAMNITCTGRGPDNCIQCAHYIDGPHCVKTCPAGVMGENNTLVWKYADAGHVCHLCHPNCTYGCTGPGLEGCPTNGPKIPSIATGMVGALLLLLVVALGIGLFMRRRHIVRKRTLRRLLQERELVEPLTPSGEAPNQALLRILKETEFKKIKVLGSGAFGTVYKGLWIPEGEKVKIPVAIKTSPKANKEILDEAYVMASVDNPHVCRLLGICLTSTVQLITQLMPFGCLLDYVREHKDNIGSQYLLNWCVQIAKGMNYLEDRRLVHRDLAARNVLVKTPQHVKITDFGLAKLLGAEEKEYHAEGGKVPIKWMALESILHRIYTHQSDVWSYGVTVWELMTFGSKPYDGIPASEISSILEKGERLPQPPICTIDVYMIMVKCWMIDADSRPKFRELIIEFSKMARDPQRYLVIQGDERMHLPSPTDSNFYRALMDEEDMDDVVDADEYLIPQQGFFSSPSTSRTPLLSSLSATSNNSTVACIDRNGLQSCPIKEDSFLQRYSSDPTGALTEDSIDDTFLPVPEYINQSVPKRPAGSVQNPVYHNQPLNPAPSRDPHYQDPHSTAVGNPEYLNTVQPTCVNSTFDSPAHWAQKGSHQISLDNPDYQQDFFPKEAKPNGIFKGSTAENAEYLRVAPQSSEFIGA
Procedure, shortened: (§4)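 Measured in intact cells exposed to compound for 4 hours, with A431 given EGF at 40 ng/mL for the closing 10 minutes; a TR-FRET antibody pair quantified phospho-Tyr1068 EGFR in lysates (4-6 h detection at room temperature), giving IC50.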

[6] = test system: NCI-H1975 cells; experiment: 5-Day CellTiter Glo (CTG) cell proliferation assay, NCI-H1975; conditions: Homo sapiens; NCI-H1975 cells (L858R/T790M EGFR), 5-day CTG proliferation, 120 hours; read-out: H1975 IC50
Procedure, shortened: as §1

[7] = test system: BaF3 cells with engineered EGFR L858R/T790M/C797S; experiment: 3-Day CellTiter Glo (CTG) cell proliferation assay, BaF3 EGFR L858R/T790M/C797S; conditions: Mus musculus, 3-day CTG proliferation, 72 hours
Procedure: as §2, §3

[8] = molecular target: T2, pEGFR, NCI-H1975 cells (L858R/T790M EGFR) (Homo sapiens, UniProt P00533, L858R/T790M); experiment: Cellular EGFR phosphorylation assay (LANCE Ultra TR-FRET) in NCI-H1975 cells
T2 construct: pEGFR (Tyr1068) TR-FRET
T2 sequence (P00533 25-1210 T790M/L858R): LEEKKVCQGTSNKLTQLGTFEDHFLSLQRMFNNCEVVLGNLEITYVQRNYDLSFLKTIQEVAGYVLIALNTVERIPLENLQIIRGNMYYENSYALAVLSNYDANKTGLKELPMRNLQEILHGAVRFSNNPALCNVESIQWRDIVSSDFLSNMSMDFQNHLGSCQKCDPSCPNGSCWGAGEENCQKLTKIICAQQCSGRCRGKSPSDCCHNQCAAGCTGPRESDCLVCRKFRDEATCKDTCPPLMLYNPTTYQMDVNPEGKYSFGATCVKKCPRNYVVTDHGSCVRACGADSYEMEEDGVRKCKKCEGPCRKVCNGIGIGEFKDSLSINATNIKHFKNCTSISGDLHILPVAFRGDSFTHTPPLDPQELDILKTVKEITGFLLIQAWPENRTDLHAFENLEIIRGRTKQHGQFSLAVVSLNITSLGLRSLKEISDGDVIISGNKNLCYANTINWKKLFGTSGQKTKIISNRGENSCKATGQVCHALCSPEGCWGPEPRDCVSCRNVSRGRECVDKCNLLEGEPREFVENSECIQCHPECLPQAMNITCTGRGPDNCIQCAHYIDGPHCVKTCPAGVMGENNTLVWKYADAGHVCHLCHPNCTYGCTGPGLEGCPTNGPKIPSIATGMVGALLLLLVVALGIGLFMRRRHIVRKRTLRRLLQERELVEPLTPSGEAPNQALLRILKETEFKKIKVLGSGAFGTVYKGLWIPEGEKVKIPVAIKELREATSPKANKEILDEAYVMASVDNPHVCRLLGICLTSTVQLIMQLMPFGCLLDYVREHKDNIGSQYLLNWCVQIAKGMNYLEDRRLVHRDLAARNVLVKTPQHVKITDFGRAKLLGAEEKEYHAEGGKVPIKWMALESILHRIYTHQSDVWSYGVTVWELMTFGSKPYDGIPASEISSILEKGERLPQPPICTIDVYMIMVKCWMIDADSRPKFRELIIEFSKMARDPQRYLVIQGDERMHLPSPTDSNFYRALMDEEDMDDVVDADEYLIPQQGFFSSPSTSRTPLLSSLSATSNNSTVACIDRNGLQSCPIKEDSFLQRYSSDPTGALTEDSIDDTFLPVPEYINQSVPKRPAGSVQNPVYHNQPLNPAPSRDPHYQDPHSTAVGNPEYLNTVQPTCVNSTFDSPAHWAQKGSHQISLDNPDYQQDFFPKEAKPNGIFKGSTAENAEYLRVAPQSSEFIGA
Procedure, shortened: as §4

[9] = molecular target: T3, pEGFR, A431 cells (wildtype EGFR) (Homo sapiens, UniProt P00533); experiment: Cellular EGFR phosphorylation assay (LANCE Ultra TR-FRET) in A431 cells
T3 construct: pEGFR (Tyr1068) TR-FRET
T3 sequence (P00533 25-1210): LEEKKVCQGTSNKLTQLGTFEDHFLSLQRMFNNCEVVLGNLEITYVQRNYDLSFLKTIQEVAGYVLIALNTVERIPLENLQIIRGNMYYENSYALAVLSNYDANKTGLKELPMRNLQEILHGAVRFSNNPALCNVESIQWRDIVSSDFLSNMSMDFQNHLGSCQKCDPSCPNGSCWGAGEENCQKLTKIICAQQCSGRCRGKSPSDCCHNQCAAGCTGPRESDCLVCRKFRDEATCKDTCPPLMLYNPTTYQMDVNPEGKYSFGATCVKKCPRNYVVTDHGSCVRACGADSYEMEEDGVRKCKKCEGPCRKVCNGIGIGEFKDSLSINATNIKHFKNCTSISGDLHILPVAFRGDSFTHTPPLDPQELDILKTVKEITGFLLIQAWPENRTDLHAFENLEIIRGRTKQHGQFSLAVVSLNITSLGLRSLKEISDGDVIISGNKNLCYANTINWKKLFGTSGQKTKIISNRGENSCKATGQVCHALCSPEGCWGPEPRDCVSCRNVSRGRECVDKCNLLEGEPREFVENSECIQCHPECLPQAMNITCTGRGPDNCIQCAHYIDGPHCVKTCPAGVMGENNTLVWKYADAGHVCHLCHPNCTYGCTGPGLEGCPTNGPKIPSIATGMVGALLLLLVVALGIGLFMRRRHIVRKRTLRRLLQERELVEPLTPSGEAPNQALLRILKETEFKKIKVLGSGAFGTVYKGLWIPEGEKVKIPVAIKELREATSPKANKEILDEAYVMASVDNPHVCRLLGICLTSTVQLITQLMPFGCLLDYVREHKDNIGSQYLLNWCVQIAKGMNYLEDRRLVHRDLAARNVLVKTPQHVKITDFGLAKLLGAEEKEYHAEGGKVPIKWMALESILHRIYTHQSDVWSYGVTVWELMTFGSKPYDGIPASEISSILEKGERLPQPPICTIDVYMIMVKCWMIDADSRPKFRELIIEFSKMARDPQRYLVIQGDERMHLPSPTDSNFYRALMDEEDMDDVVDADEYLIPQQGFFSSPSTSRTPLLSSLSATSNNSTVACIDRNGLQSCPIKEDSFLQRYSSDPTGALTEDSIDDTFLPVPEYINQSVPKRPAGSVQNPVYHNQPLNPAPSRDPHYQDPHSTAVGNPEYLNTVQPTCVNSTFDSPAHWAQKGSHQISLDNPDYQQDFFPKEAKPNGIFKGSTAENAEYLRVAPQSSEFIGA
Procedure, shortened: as §4

[10] = 4 hours at 37° C., read-out: PC-9 pEGFR IC50
[11] = 4 hours at 37° C., read-out: H1975 pEGFR IC50
[12] = 4 hours at 37° C., 40 ng/mL EGF for the final 10 minutes, read-out: A431 pEGFR IC50

Row | SMILES | IC50 [1] | IC50 [2] | IC50 [3] | IC50 [4] | IC50 [5, 10] | IC50 [6] | IC50 [7] | IC50 [8, 11] | IC50 [9, 12] | IC50 ([5]; read-out: PC-9 pEGFR IC50, 4 hours at 37° C.) | IC50 ([8]; read-out: H1975 pEGFR IC50, 4 hours at 37° C.) | IC50 ([9]; read-out: A431 pEGFR IC50, 4 hours at 37° C., 40 ng/mL EGF for the final 10 minutes)
1 | CCOc1nn(CCO)c2c1/C=C/c1n[nH]c3cnc(cc13)-c1c(C)nn(C)c1O[C@@H](C)CN(C1CC1)C2 [Ex. 113, 2-[(10S,17E)-12-cyclopropyl-16-ethoxy-6,8,10-trimethyl-2,8,10,11,12,13-hexahydro-14H-5,3-(azenometheno)tripyrazolo[3,4-f:3′,4′-j:4″,3″-n][1,4]oxazacyclopentadecin-14-yl]ethan-1-ol] | 0.45 nM | 1.18 nM | 0.11 nM | 0.68 nM | 1.98 nM | 1.4 nM | 0.91 nM | 1.58 nM | 11.1 nM |  |  | 
2 | CCOc1nn(CCO)c2c1/C=C/c1n[nH]c3c(C)nc(cc13)-c1c(C)nn(C)c1O[C@H](C)[C@H]1CCCN1C2 [Ex. 178] | 0.39 nM | 0.67 nM | 0.06 nM | 1.02 nM | 0.81 nM | 0.93 nM | 0.59 nM | 1.29 nM | 12.5 nM |  |  | 
3 | CCOc1nn([C@@H](C)CO)c2c1/C=C/c1n[nH]c3cnc(cc13)-c1c(CC)nn(C)c1O[C@@H](C)CN(C)C2 [Ex. 82, (2S)-2-[(10S,17E)-16-ethoxy-6-ethyl-8,10,12-trimethyl-2,8,10,11,12,13-hexahydro-14H-5,3-(azenometheno)tripyrazolo[3,4-f:3′,4′-j:4″,3″-n][1,4]oxazacyclopentadecin-14-yl]propan-1-ol] | 0.85 nM | 66.3 nM | 0.12 nM | 1.54 nM | 2.35 nM | 207 nM | 4.4 nM | 15 nM | 24.7 nM |  |  | 
4 | CCOc1nn([C@@H](C)CO)c2c1/C=C/c1n[nH]c3c(C)nc(cc13)-c1c(C)nn(C)c1O[C@@H](C)[C@H]1CCCN1C2 [Ex. 179, (2S)-2-[(8aR,9S,19E)-1-ethoxy-9,11,13,21-tetramethyl-7,8,8a,9,11,17-hexahydro-6H-14,16-(azenometheno)tripyrazolo[3,4-f:3′,4′-j:4″,3″-n]pyrrolo[2,1-c][1,4]oxazacyclopentadecin-3(4H)-yl]propan-1-ol] | 0.23 nM | 0.88 nM | 0.1 nM | 0.78 nM | 0.69 nM | 1.41 nM | 1.47 nM | 1.38 nM | 8.64 nM |  |  | 
5 | CCOc1nn([C@@H](C)CO)c2c1/C=C/c1n[nH]c3c(C)nc(cc13)-c1c(C)nn(C)c1O[C@H](C)CN(C)C2 [Ex. 98] | 1.35 nM | 1.01 nM | 0.24 nM | 5.71 nM | 3.62 nM | 3.34 nM | 0.74 nM | 1.9 nM | 16.8 nM |  |  | 
6 | CCNc1nn([C@@H](C)CO)c2c1/C=C/c1n[nH]c3c(C)nc(cc13)-c1c(C)nn(C)c1O[C@@H](C)CN(C)C2 [Ex. 94, (2S)-2-[(10S,17E)-16-(ethylamino)-6,8,10,12,20-pentamethyl-2,8,10,11,12,13-hexahydro-14H-5,3-(azenometheno)tripyrazolo[3,4-f:3′,4′-j:4″,3″-n][1,4]oxazacyclopentadecin-14-yl]propan-1-ol] | 0.71 nM | 1.23 nM | 0.09 nM | 3.52 nM |  | 1.76 nM | 0.93 nM |  |  | 2.31 nM | 1.55 nM | 17.8 nM
7 | CCOc1nn([C@@H](C)CO)c2c1/C=C/c1n[nH]c3cnc(cc13)-c1c(C)nn(C)c1O[C@@H](C)CNC2 [Ex. 92, (2S)-2-[(10S,17E)-16-ethoxy-6,8,10-trimethyl-2,8,10,11,12,13-hexahydro-14H-5,3-(azenometheno)tripyrazolo[3,4-f:3′,4′-j:4″,3″-n][1,4]oxazacyclopentadecin-14-yl]propan-1-ol] | 5.37 nM | 29.7 nM | 0.74 nM | 43.4 nM | 12.6 nM | 68.5 nM | 4.12 nM | 14.1 nM | 33.4 nM |  |  | 
8 | CCOc1nn([C@H](C)CO)c2c1/C=C/c1n[nH]c3c(C)nc(cc13)-c1c(C)nn(C)c1O[C@@H](C)CN(C)C2 [Ex. 95, (2R)-2-[(10S,17E)-16-ethoxy-6,8,10,12,20-pentamethyl-2,8,10,11,12,13-hexahydro-14H-5,3-(azenometheno)tripyrazolo[3,4-f:3′,4′-j:4″,3″-n][1,4]oxazacyclopentadecin-14-yl]propan-1-ol] | 1.15 nM | 2.14 nM | 0.13 nM | 5.19 nM | 3.35 nM | 2.86 nM | 0.74 nM | 1.76 nM | 17.7 nM |  |  | 
9 | CCOc1nn([C@@H](C)CO)c2c1/C=C/c1n[nH]c3cnc(cc13)-c1c(C)nn(C)c1OC[C@@H](C)N(C)C2 [Ex. 97, (2S)-2-[(11R,17E)-16-ethoxy-6,8,11,12-tetramethyl-2,8,10,11,12,13-hexahydro-14H-5,3-(azenometheno)tripyrazolo[3,4-f:3′,4′-j:4″,3″-n][1,4]oxazacyclopentadecin-14-yl]propan-1-ol] | 0.2 nM | 0.4 nM | 0.04 nM | 1.39 nM | 1.08 nM | 1.77 nM | 0.43 nM | 1.62 nM | 11 nM |  |  | 
10 | CCOc1nn(CCO)c2c1/C=C/c1n[nH]c3cnc(cc13)-c1c(cnn1C)OCCN(C)C2 [Ex. 104, 2-[(17E)-16-ethoxy-6,12-dimethyl-2,6,10,11,12,13-hexahydro-14H-5,3-(azenometheno)tripyrazolo[3,4-f:3′,4′-j:3″,4″-n][1,4]oxazacyclopentadecin-14-yl]ethan-1-ol] | 13.9 nM | 63.9 nM | 6.89 nM | 59 nM | 39.8 nM |  | 36.2 nM | 50.5 nM | 146 nM |  |  | 
11 | C=CC(=O)N1Cc2c(c(OCC)nn2[C@@H](C)CO)/C=C/c2n[nH]c3cnc(cc23)-c2c(C)nn(C)c2O[C@@H](C)C1 [Ex. 115, 1-[(10S,17E)-16-ethoxy-14-[(2S)-1-hydroxypropan-2-yl]-6,8,10-trimethyl-2,8,10,11,13,14-hexahydro-12H-5,3-(azenometheno)tripyrazolo[3,4-f:3′,4′-j:4″,3″-n][1,4]oxazacyclopentadecin-12-yl]prop-2-en-1-one] | 1.47 nM | 3.05 nM | 9.04 nM | 3.35 nM |  | 6.13 nM | 31.9 nM |  |  |  |  | 
12 | CCN(C)c1nn([C@@H](C)CO)c2c1/C=C/c1n[nH]c3cnc(cc13)-c1c(C)nn(C)c1O[C@@H](C)CN(C)C2 [Ex. 105, (2S)-2-[(10S,17E)-16-[ethyl(methyl)amino]-6,8,10,12-tetramethyl-2,8,10,11,12,13-hexahydro-14H-5,3-(azenometheno)tripyrazolo[3,4-f:3′,4′-j:4″,3″-n][1,4]oxazacyclopentadecin-14-yl]propan-1-ol] | 52.1 nM | 700 nM | 15.5 nM | 209 nM | 319 nM |  | 147 nM | 274 nM | 365 nM |  |  | 
13 | CCN(C)c1nn([C@@H](C)CO)c2c1/C=C/c1n[nH]c3c(C)nc(cc13)-c1c(C)nn(C)c1O[C@@H](C)CN(C)C2 [Ex. 102, (2S)-2-[(10S,17E)-16-[ethyl(methyl)amino]-6,8,10,12,20-pentamethyl-2,8,10,11,12,13-hexahydro-14H-5,3-(azenometheno)tripyrazolo[3,4-f:3′,4′-j:4″,3″-n][1,4]oxazacyclopentadecin-14-yl]propan-1-ol] | 25.3 nM | 204 nM | 3.16 nM | 52.8 nM |  | 57 nM | 12.2 nM |  |  |  |  | 
